# Test results as given in patent publication US20150342847A1, “NOVEL DERIVATIVES OF SINAPINIC ACID AND THE COSMETIC OR PHARMACEUTICAL USES THEREOF” (BASF Beauty Care Solutions France SAS, priority 2012, published 2015).
# How the values were obtained:
# [1] = test system: keratinocytes from the A431 line; assay: Antiinflammatory activity: release of E2 prostaglandins by UVB-irradiated keratinocytes (ELISA); format: cell-based
# Protocol: Study of the antiinflammatory activity of the hydroxytyrosol dihydrosinapate of the invention of formula (IIa), by measurement of the inhibition of release of E2 prostaglandins by keratinocytes under the effect of UVB.
# The keratinocytes from the A431 line are cultured in an appropriate medium at 37° C. for 72 hours under 5% CO2. The culture medium is then withdrawn and replaced with the medium containing the products under test, and also the positive and negative controls. The cells are subsequently irradiated with UV B at 30 mJ/cm2. The cells are incubated for an extra 24 hours at 37° C. under 5% CO2. The cell supernatants are subsequently recovered, and the E2 prostaglandins (PGE2) released are quantified by an ELISA assay.
# An amount of 100 μL of each sample, control or PGE2 standard is transferred to the wells of a 96-well plate, which are coated with antibodies directed against rat immunoglobulin G (IgG). Then an amount of 25 μL of PGE2-peroxidase conjugate is added to each well, followed by an amount of 25 μL of anti-PGE2 monoclonal antibody. The plate is incubated at 4° C. overnight. The wells are then rinsed and an amount of 100 μL of peroxidase substrate is added. After 15 minutes of incubation at ambient temperature, the optical density is read off at 450 nm. The amount of prostaglandin E2 released after irradiation is deduced from a commercial PGE2 standard range from 0 to 400 pg/mL of PGE2.
# The negative control, represented by the cells which were not treated with samples and which underwent irradiation by UV B, gave rise to 100% release of PGE2. The positive experimental control is aspirin, which at 0.03% gave rise to 5%+/−2% release of PGE2.
# [2] = target: T1, human tyrosinase (Homo sapiens, UniProt P14679); assay: Anti-human tyrosinase activity in normal human melanocytes (MBTH/L-Dopa, OD490); format: cell-based; details: normal human melanocytes, read-out: % inhibition of activity of tyrosinase +/− standard deviation
# T1 construct: endogenous in cells; host or cells: normal human melanocytes obtained from abdominal plasty
# T1 sequence (P14679 19-529): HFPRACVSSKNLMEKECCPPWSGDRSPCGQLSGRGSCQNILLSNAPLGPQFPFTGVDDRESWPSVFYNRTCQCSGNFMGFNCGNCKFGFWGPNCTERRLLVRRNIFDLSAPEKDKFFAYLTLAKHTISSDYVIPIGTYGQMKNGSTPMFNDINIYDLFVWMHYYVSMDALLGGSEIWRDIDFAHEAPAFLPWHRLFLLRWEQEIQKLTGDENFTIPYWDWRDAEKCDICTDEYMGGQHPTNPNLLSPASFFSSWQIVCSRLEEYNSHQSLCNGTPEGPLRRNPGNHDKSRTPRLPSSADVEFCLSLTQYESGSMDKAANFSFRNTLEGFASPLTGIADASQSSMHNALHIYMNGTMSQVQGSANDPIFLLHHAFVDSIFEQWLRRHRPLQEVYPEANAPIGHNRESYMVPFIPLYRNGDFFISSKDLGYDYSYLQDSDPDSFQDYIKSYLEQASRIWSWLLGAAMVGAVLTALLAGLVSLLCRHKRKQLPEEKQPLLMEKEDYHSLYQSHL
# Protocol: Study of the inhibition of tyrosinase by the hydroxytyrosol dihydrosinapate of the invention of formula (IIa), in comparison with the prior-art ferulic acid derivative, by quantitative analysis of the human tyrosinase activity of melanocytes cultured as a monolayer following application of the compound under test. Normal human melanocytes (obtained from abdominal plasty) are seeded in a 24-well plate at 80000 cells per well. They are cultured until confluence, and the compounds under test are applied in the culture media for 24 hours. After 24 hours, the media are removed and the melanocytes are detached by mechanical action. Extraction is carried out by thermal shock and then the supernatants are recovered and incubated with MBTH (methyl benzothiazolinone-hydrazone) (Sigma) and L-Dopa (Sigma). The optical density (OD) at 490 nm (OD490) is measured after 30 minutes of incubation, and the inhibition of tyrosinase is calculated according to the following formula: % inhibition=100−[100×(OD490 sample/level of proteins in sample)/(OD490 negative control/level of proteins in negative control)] The OD490 is therefore related to the level of protein, which is the measurement in each culture well. […] The results are presented as % inhibition of activity of tyrosinase, in Table 2.
# [3] = TBARS test, lipid peroxidation of UVB-irradiated liposomal suspension; details: for % inhibition of lipid peroxidation: UVB 2 hours
# Protocol: Study of the radical scavenger activity of the hydroxytyrosol dihydrosinapate of the invention of formula (IIa) and of the prior-art ferulic acid derivative by the TBARS test.
# Two identical 96-well plates are produced according to a defined plate plan. 50 μL of a sample mixture prepared by diluting a solution of a test compound or of a negative control (vehicle medium without test compound) or of a positive control (D-L-alpha-tocopherol) to 1/10 in a liposomal suspension are distributed per well, in quadruplicate. One of the two plates is irradiated with UVB for 2 hours. The other plate, serving as a control, is incubated in the absence of light and at ambient temperature for 2 hours.
# At the end of irradiation, an amount of 100 μL of 20% trichloroacetic acid solution was added per well, followed by an amount of 34 μL of 1% thiobarbituric acid solution. The plates are then incubated at 105° C. for 25 minutes.
# The contents of each well are centrifuged at 5700 rpm for 5 minutes, and then an amount of 100 μL of supernatant was deposited in new plates, according to the same plan, and the absorbance was read off at 530 nm.
# The positive experimental control was D-L-alpha-tocopherol, at a concentration of 1%, for which a percentage inhibition of 80% was obtained.
# [4] = test system: melanocytes of murine line B16; assay: Inhibition of melanin production in B16 melanocytes stimulated with an α-MSH derivative; format: cell-based; details: Mus musculus, B16 cells
# Protocol: Determination of the percentage inhibition of melanin production by the hydroxytyrosol dihydrosinapate of the invention of formula (IIa) or the ferulic acid derivative of the prior art, by quantitative analysis of the total melanin synthesized by melanocytes of murine line B16 following application of the compound under test.
# Melanocytes (B16 cells) are cultured for 24 hours in a 96-well plate in an appropriate medium. […] After 72 hours of incubation, the culture medium is withdrawn, and total melanin is quantified by measuring the absorbance at 405 nm against a standard range of synthetic melanin from 0.78 to 100 μg/mL.
# The results are expressed as percentage inhibition of melanin production relative to the negative control, and are presented in Table 1.
# The inhibitory activity on melanin production of the product tested is calculated as a percentage according to the following formula:
# % inhibition=[(mean stimulated control−mean basal control)−(sample value−mean basal control)]/(mean stimulated control−mean basal control)×100
# where: • Mean stimulated control: mean of the values obtained with a medium supplemented with an alpha-MSH derivative • Sample value: value obtained with the compound under test • Mean basal control: Mean of the values obtained with a medium not supplemented with an alpha-MSH derivative
# [5] = DPPH radical scavenger test (acellular); details: 30 minutes
# From the text: Study of the radical scavenger activity of the hydroxytyrosol dihydrosinapate of the invention of formula (IIa) and of the prior-art ferulic acid derivative in an acellular in vitro model, using DPPH.
# 1,1-Diphenyl-2-picrylhydrazyl, owing to its paramagnetic structure, is able to accept an electron or a hydrogen radical in order to become a stable diamagnetic molecule.
# The addition of a compound which provides electrons gives rise to decoloring of the 1,1-diphenyl-2-picrylhydrazyl in a manner proportional to the number of electrons accepted by the radical, and this decoloration can be monitored by measuring the absorbance at 530 nm (OD530).
# […] At the end of the incubation, the radical scavenger activity of the compound under test is evaluated by measuring the absorbance of the solution at 530 nm.
# The results are presented as % inhibition of the DPPH radical, in Table 3a).
# The radical scavenger activity of the test product is calculated as a percentage, according to the following formula:
# 100−((OD530 in the presence of the compound under test/OD530 in the absence of compound)×100)
# [6] = test system: keratinocytes; assay: Cytotoxicity, MTT cell viability on keratinocytes; format: cell-based; details: 0.25%, positive cytotoxicity control
# Protocol: (§1) Study of cell viability following application of the hydroxytyrosol dihydrosinapate of the invention of formula (IIa) to keratinocytes or melanocytes.
# (§2) The cells (keratinocytes or melanocytes) were cultured in a 96-well plate at 37° C. under 5% CO2 in an appropriate medium until confluence. The medium was withdrawn and then an amount of 200 μL of a 0.5 mg/mL MTT solution was added. The plates were then incubated at 37° C. for 3 hours, after which the MTT solution was withdrawn from each well and replaced with DMSO. The plates were agitated for 15 minutes, and the optical density was measured at 550 nm.
# (§3) The negative cytotoxicity control is PBS. The positive cytotoxicity control is 0.25% SDS. 0.1% DMSO was used as control.
# [7] = test system: melanocytes; assay: Cytotoxicity, MTT cell viability on melanocytes; format: cell-based; details: 0.25%, positive cytotoxicity control
# Protocol: as §1, §2, §3
smiles,measurement,setting,value
COc1cc(CCC(=O)OCCc2ccc(O)c(O)c2)cc(OC)c1O,inhibition of prostaglandin E2 release (in words),"[1]; keratinocytes, 30 μM, after irradiation with UVB",greatly inhibited prostaglandin E2 release
"OC[C@H]1O[C@@H](Oc2ccc(O)cc2)[C@H](O)[C@@H](O)[C@@H]1O [Arbutin, arbutin, reference compound]",inhibition at 1000 µM,[2]; 1 mM,65%
Cc1c(C)c2c(c(C)c1O)CCC(C)(CCCC(C)CCCC(C)CCCC(C)C)O2 [D-L-alpha-tocopherol],percentage inhibition (lipid peroxidation),[3]; positive control at a concentration of 1%,80%
"O=c1cc(CO)occ1O [Kojic acid, kojic acid]",inhibition at 25 µg/mL,"[4]; positive control at 0.025 mg/mL, read-out: percentage inhibition of melanin production",50%
"COc1cc(/C=C/C(=O)NCCc2ccc(O)c(O)c2)ccc1O [Prior-art ferulic acid derivative, N-trans-feruloyldopamine, reference compound]",inhibition at 10 µM,"[4]; 10 μM, 72 hours, read-out: % inhibition of melanin +/− standard deviation",37%
same,inhibition at 30 µM,"[4]; 30 μM, 72 hours, read-out: % inhibition of melanin +/− standard deviation",76%
same,inhibition at 50 µM,"[4]; 50 μM, 72 hours, read-out: % inhibition of melanin +/− standard deviation",88%
same,inhibition at 1 µM,"[2]; 1 μM, 24 hours",-9.22%
same,inhibition at 10 µM,"[2]; 10 μM, 24 hours",18.8%
same,inhibition at 100 µM,"[2]; 100 μM, 24 hours",67.8%
same,% inhibition of the DPPH radical,[5]; 1 μM,6.02 +/− 0.758%
same,% inhibition of the DPPH radical,[5]; 5 μM,35.02 +/− 1.209%
same,% inhibition of the DPPH radical,[5]; 10 μM,61.85 +/− 1.35%
same,% inhibition of the DPPH radical,[5]; 30 μM,89.91 +/− 0.66%
same,% inhibition of the DPPH radical,[5]; 50 μM,89.91 +/− 0.59%
same,% inhibition of the DPPH radical,[5]; 100 μM,89.91 +/− 0.66%
same,% inhibition of the DPPH radical,[5]; 1000 μM,90.99 +/− 0.46%
same,% inhibition of lipid peroxidation,[3]; 1 μM after dilution to 1/10th in the liposomal suspension,−16.95%
same,% inhibition of lipid peroxidation,[3]; 5 μM after dilution to 1/10th in the liposomal suspension,6.69%
same,% inhibition of lipid peroxidation,[3]; 30 μM after dilution to 1/10th in the liposomal suspension,11.77%
same,% inhibition of lipid peroxidation,[3]; 50 μM after dilution to 1/10th in the liposomal suspension,31.74%
same,% inhibition of lipid peroxidation,[3]; 100 μM after dilution to 1/10th in the liposomal suspension,64.04%
same,% inhibition of lipid peroxidation,[3]; 1000 μM after dilution to 1/10th in the liposomal suspension,94.72%
"CCCCCCCCCCCCOS(=O)(=O)[O-].[Na+] [SDS, reference compound]","Percentage cell viability, Mean",[6],1.3%
same,"Percentage cell viability, Mean",[7],0.8%
"CC(=O)Oc1ccccc1C(=O)O [aspirin, reference compound]",% release of PGE2 after irradiation,"[1]; A431 keratinocytes, 0.03%, UV B 30 mJ/cm2, positive control",5%+/−2%
